Reference: patent US9023763B2, “Modification of trehalose-6-phosphate levels in plants” (Isis Innovation Limited, priority 2011, dated 2015)
Like-named read-outs stand apart in the source and are kept apart here.

What was measured:
[1] = In vitro deprotection under UV light and sunlight, followed by mass spectrometry/TLC and P NMR; format: physicochemical; conditions: for deprotection time: 5 mM in phosphate buffer pH 7.4
From the text: Two experimental techniques were chosen for studying the progress of deprotection experiments i.e. i) Mass spectroscopy and TLC (spot), and ii) P NMR. Progress of the reactions was monitored by looking for the disappearance of peak corresponding to protected compounds and appearance of peak corresponding to T6P. The structure of completely uncaged compound i.e. T6P was established by 1D and 2D NMR.
Both experimental techniques were very efficient and reproducible to analyse the deprotection experiments. Five millimolar solutions of Examples 1 to 4 were prepared in phosphate buffer (pH 7.4) and the resulting solution was exposed to different wavelengths of UV light and sunlight to monitor deprotection at different time intervals.
After successful synthesis of protected-G6P(1-OMe) compounds their deprotection was carried out under various wavelength and power of UV light.

[2] = In-planta uptake after feeding to roots of seedlings, quantified by HPLC/LCMS; format: in vivo, Arabidopsis thaliana; conditions: for concentration at 72 h / uptake in μg/10 mg of seedling: protected T6P compounds, after 72 h (3 days), n = 3; for concentration at 72 h / Uptake % / uptake in μg/10 mg of seedling: Arabidopsis seedling; for concentration at 72 h: read-out: uptake in μg/10 mg of seedling; for in-planta uptake (in words): after 72 h; for Uptake %: proportion of compound fed taken up by the plant, 72 h
Description: Aqueous solutions of each of Examples 1 to 4 were fed to roots of seedlings of Arabidopsis thaliana and after a certain period of time the aerial (shoot) part of seedling was harvested carefully and extracted in H2O:MeOH (1:1) under liquid nitrogen to get crude fresh plant extract. The crude fresh plant extract thus obtained was analysed by mass spec and using HPLC to quantify the amount of compound taken up.
An aqueous solution of NB-T6P (Example 1) was fed to the seedlings, at 1 mM final concentration, near to the root and uptake was monitored in freshly prepared extract after 24 h, 48 h and 72 h using both HPLC and mass technique.
The quantitative analysis of the compounds taken up into the plant was carried out using freshly prepared plant extract by LCMS and summarised data are given in Table 2.

[3] = tested on: Arabidopsis thaliana; assay: Increased starch production in treated plants; format: in vivo; conditions: 0.1 mM in the media
Description: Pre-stratified Arabidopsis thaliana seeds were sown in sterile culture on 0.5 mL solid medium (0.5× Murashige and Skoog with Gamborg's vitamins, 0.5% agar) in 0.5 mL tubes pierced with a small hole in the bottom. Tubes were arrayed in polystyrene racks and floated in liquid medium without added sucrose in Phytatrays. Seedlings were grown under 12 hr days under fluorescent lights giving 250 μmo/m^2/s, and 23° C. day/18° C. night temperatures. At 16-20 days after sowing the liquid medium was removed and the tubes were sealed with electrician's tape. All plants were topped up with 0.5×MS medium with no sucrose. Plants were treated with compound example 3, or water by adding example 3 to a final concentration of 0.1 mM in the media. On the third day plants were subjected to growth lights supplemented with UV light (8 W UV bulb) from a Gelman transilluminator (Model 51438) at a distance of 6 cm for 8 h. Plants were allowed to recover for a further day and the aerial parts were harvested at the end of the day, weighed and frozen in liquid nitrogen. Starch was extracted according to published methods, converted to glucose and measured as nmol glucose/gram fresh weight (Nature Protocol 2006, 1, 1342). Results are depicted in FIG. 6.

[4] = tested on: SnRK1; assay: SnRK1 assay (Plant Physiol. 2009, 149, 1860-1871); format: biochemical
Description: The compounds synthesised in Examples 1 to 4 were tested against the known target for T6P in vitro i.e. SnRK1, using the assay described in Plant Physiol. 2009, 149, 1860-1871.
T6P deprotected by treatment of NB-T6P (Example 1) under deprotection conditions of 125 W/365 nm radiation was included in SnRK1 assays (carried out in accordance with Plant Physiol. 2009, 149, 1860-1871) to determine its inhibition effect and compared to commercially available T6P from Sigma. The results are depicted in FIG. 3.

[5] = Arabidopsis thaliana, in vivo, 1 mM

SMILES: CO[C@H]1O[C@H](COP(=O)(OCc2ccccc2[N+](=O)[O-])OCc2ccccc2[N+](=O)[O-])[C@@H](O)[C@H](O)[C@H]1O [NB-G6P(1-OMe)]
- deprotection time of caged G6P(1-OMe) ([1]; 8 W/254 nm): 6 h
- deprotection time of caged G6P(1-OMe) ([1]; 8 W/365 nm): 8 h
- deprotection time of caged G6P(1-OMe) ([1]; 125 W/200-400 nm): 0.75 h
- deprotection time of caged G6P(1-OMe) ([1]; 125 W/365 nm): 1.25 h
- deprotection time of caged G6P(1-OMe) ([1]; Sun light): 8 h

SMILES: COc1cc(COP(=O)(O)OCC2O[C@H](O[C@H]3OC(CO)[C@@H](O)C(O)C3O)C(O)C(O)[C@@H]2O)c([N+](=O)[O-])cc1OC (some centres unmarked) [Example 4, Mono-DMNB-T6P]
- concentration at 72 h [2, 5]: 360000 ng/g
- concentration at 72 h ([2]; Arabidopsis thaliana, in vivo): 360000 ng/g
- in-planta uptake (in words) [2]: taken up by the plant
- Uptake % [2]: 1%
- deprotection time ([1]; 8 W/254 nm): 600 min
- deprotection time ([1]; 8 W/365 nm): 360 min
- deprotection time ([1]; 125 W/200-400 nm): 45 min
- deprotection time ([1]; 125 W/365 nm): 45 min
- deprotection time ([1]; Sun light): 360 min

SMILES: COc1cc(COP(=O)(O)OC[C@H]2O[C@H](OC)[C@H](O)[C@@H](O)[C@@H]2O)c([N+](=O)[O-])cc1OC [Mono-DMNB-G6P(1-OMe)]
- deprotection time of caged G6P(1-OMe) ([1]; 8 W/254 nm): 10 h
- deprotection time of caged G6P(1-OMe) ([1]; 8 W/365 nm): 10 h
- deprotection time of caged G6P(1-OMe) ([1]; 125 W/200-400 nm): 1.25 h
- deprotection time of caged G6P(1-OMe) ([1]; 125 W/365 nm): 1.25 h
- deprotection time of caged G6P(1-OMe) ([1]; Sun light): 8 h

SMILES: COc1cc(COP(=O)(OCc2cc(OC)c(OC)cc2[N+](=O)[O-])OC[C@H]2O[C@H](OC)[C@H](O)[C@@H](O)[C@@H]2O)c([N+](=O)[O-])cc1OC [DMNB-G6P(1-OMe)]
- deprotection time of caged G6P(1-OMe) ([1]; 8 W/254 nm): 10 h
- deprotection time of caged G6P(1-OMe) ([1]; 8 W/365 nm): 10 h
- deprotection time of caged G6P(1-OMe) ([1]; 125 W/200-400 nm): 2 h
- deprotection time of caged G6P(1-OMe) ([1]; 125 W/365 nm): 2 h
- deprotection time of caged G6P(1-OMe) ([1]; Sun light): 10 h

SMILES: COC1OC(COP(=O)(OC(C)c2ccccc2[N+](=O)[O-])OC(C)c2ccccc2[N+](=O)[O-])C(O)C(O)C1O (mixture of isomers) [NPE-G6P(1-OMe)]
- deprotection time of caged G6P(1-OMe) ([1]; 8 W/254 nm): 2 h
- deprotection time of caged G6P(1-OMe) ([1]; 8 W/365 nm): 2 h
- deprotection time of caged G6P(1-OMe) ([1]; 125 W/200-400 nm): 0.75 h
- deprotection time of caged G6P(1-OMe) ([1]; 125 W/365 nm): 1.25 h
- deprotection time of caged G6P(1-OMe) ([1]; Sun light): 10 h

SMILES: CC(OP(=O)(OCC1O[C@H](O[C@H]2OC(CO)[C@@H](O)C(O)C2O)C(O)C(O)[C@@H]1O)OC(C)c1ccccc1[N+](=O)[O-])c1ccccc1[N+](=O)[O-] (some centres unmarked) [Example 3, NPE-T6P]
- increase in amount of starch produced relative to concentration of T6P released in-planta ([3]; 8 W UV for 8 h): tenfold higher
- starch levels compared to plants treated with water only ([3]; growth lights plus 8 W UV bulb for 8 h on third day, harvested a day later, FIG. 6): significantly higher starch levels
- in-planta uptake (in words) [2]: taken up by the plant
- Uptake % [2]: 18%
- uptake in μg/10 mg of seedling [2]: 66.0 μg/10 mg of seedling
- deprotection time ([1]; 8 W/254 nm): 90 min
- deprotection time ([1]; 8 W/365 nm): 90 min
- deprotection time ([1]; 125 W/200-400 nm): 10 min
- deprotection time ([1]; 125 W/365 nm): 20 min
- deprotection time ([1]; Sun light): 90 min

SMILES: O=[N+]([O-])c1ccccc1COP(=O)(OCc1ccccc1[N+](=O)[O-])OCC1O[C@H](O[C@H]2OC(CO)[C@@H](O)C(O)C2O)C(O)C(O)[C@@H]1O (some centres unmarked) [Example 1, NB-T6P]
- concentration at 24 h ([2]; Arabidopsis thaliana, in vivo, 1 mM final concentration fed near the root, 24 h): 263000 ng/g
- concentration at 48 h ([2]; Arabidopsis thaliana, in vivo, 1 mM final concentration fed near the root, 48 h): 605000 ng/g
- Uptake % [2]: 14%
- uptake in μg/10 mg of seedling [2]: 26.39 μg/10 mg of seedling
- deprotection time ([1]; 8 W/254 nm): 240 min
- deprotection time ([1]; 8 W/365 nm): 360 min
- deprotection time ([1]; 125 W/200-400 nm): 15 min
- deprotection time ([1]; 125 W/365 nm): 30 min
- deprotection time ([1]; Sun light): 360 min

SMILES: COc1cc(COP(=O)(OCc2cc(OC)c(OC)cc2[N+](=O)[O-])OCC2O[C@H](O[C@H]3OC(CO)[C@@H](O)C(O)C3O)C(O)C(O)[C@@H]2O)c([N+](=O)[O-])cc1OC (some centres unmarked) [Example 2, DMNB-T6P]
- concentration at 72 h [2, 5]: 318000 ng/g
- concentration at 72 h ([2]; Arabidopsis thaliana, in vivo): 318000 ng/g
- in-planta uptake (in words) [2]: taken up by the plant
- Uptake % [2]: 1%
- deprotection time ([1]; 8 W/254 nm): 600 min
- deprotection time ([1]; 8 W/365 nm): 600 min
- deprotection time ([1]; 125 W/200-400 nm): 60 min
- deprotection time ([1]; 125 W/365 nm): 60 min
- deprotection time ([1]; Sun light): 480 min

SMILES: O=P(O)(O)OC[C@H]1O[C@H](O[C@H]2O[C@H](CO)[C@@H](O)[C@H](O)[C@H]2O)[C@H](O)[C@@H](O)[C@@H]1O [Example T6P, trehalose-6-phosphate]
- SnRK1 inhibition ([4]; T6P obtained from deprotection of Example 1 (125 W/365 nm), 0.32 mM, FIG. 3): inhibits SnRK1 in the same way as commercially available T6P
- SnRK1 inhibition ([4]; in vitro, in duplicate, FIG. 1): shows typical inhibition
